Results taken from PMC11758220, “Identification of a Privileged Scaffold for Inhibition of Sterol Transport Proteins through the Synthesis and Ring Distortion of Diverse, Pseudo-Natural Products” (ACS Central Science, 2025).

Assays:
STARD5 = target: T1, STARD5 (Homo sapiens, UniProt Q9NSY2); set-up: method as in Depta et al.[43]; details: data reproduced; ref Depta et al.[43]; read-out: STARD5 Kd,app (DSF); cited from earlier work
T1 construct: STARD5(6-213); host or cells: E. coli BL21(DE3)
T1 sequence (Q9NSY2 6-213): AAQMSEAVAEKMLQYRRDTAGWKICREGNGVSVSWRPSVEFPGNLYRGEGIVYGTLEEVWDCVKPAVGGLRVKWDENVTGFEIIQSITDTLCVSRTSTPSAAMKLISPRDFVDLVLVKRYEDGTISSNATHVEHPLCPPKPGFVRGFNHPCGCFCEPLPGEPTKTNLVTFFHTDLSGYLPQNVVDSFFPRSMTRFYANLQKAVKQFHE

panel of STPs = experiment: Screen against a broad panel of the STPs using FP and DSF assays; format: binding, human
Description: Protein expression constructs
Human ASTER domains of Aster-A(359-547), -B(364-552) and -C(318-504) were subcloned into a pGEX-6p-2rbs vector, thus introducing the cloning artifact ‘GPLGS’.3 The pGEX-6P-1-GST-OSBP(377- […]
a gift from James H. Hurley (University of California).4 The pHIS_2His6_Thrombin_STARD4(2-205;C75S) plasmid was a gift from Young Jun Im (Chonnam National University).5 STARD5A was a gift from Nicola Burgess-Brown (Addgene plasmid #42392; http://n2t.net/addgene:42392; […]
Protein expression and purification […]
vectors including an N-terminal PreScission-cleavable glutathione S-transferase (GST)-tag were expressed in Escherichia coli (E. coli) OverExpress C41 in Terrific Broth (TB) medium for 16 h at 18 °C after the induction with 0.1 mM isopropyl β-D-1-thiogalactopyranoside (IPTG). Cells were harvested at 3500 × g for 15 minutes and lysed by sonication in buffer containing 50 mM HEPES pH 7.5, 300 mM NaCl, 10 %v/v glycerol, 5 mM dithiothreitol (DTT), 0.1 %v/v Triton X-100 and protease inhibitor mix HP plus (Serva). The lysate was purified by affinity chromatography on a GSTrap FF column (Cytiva) using an ÄKTA Start (Cytiva) in buffer containing 50 mM HEPES pH 7.5, 300 mM NaCl, 10 %v/v glycerol, 5 mM DTT and 0.01 %v/v Triton X-100. The GST-tag was cleaved overnight on the column at 4 °C. […]

SMILES | Kd (STARD5) | Activity against the panel of STPs (in words) (panel of STPs)
CCN(CC)CCO[C@H]1CC[C@@]2(C)C(=CC[C@@H]3[C@@H]2CC[C@]2(C)C(=O)CC[C@@H]32)C1 [Compound U18666A, reference compound] | > 30 µM | –
CC12CCC3CC1CCC21C(=Nc2ccc(N4CCNCC4)cc21)O3 (centres unmarked) [Compound 22] | – | lost almost all activity
